In patent US20180110747A1, “USE OF THIA OXO COMPOUNDS FOR LOWERING APO C3” (Pronova Biopharma Norge AS, priority 2015, published 2018):

Columns and labels:
apoC-III = assay: Hepatic apoC-III gene expression in APOE*3Leiden transgenic mice on Western-type diet; type: in vivo, mouse; details: 0.3 mmol/kg bw/day orally as admix to WTD, 4 weeks
Description: The APOE*3Leiden transgenic mouse is expressing a variant of the human apolipoprotein E3 (APOE3), the APOE*3Leiden, in addition to the human apolipoprotein C1 (APOC1). […] In contrast to normal wild-type mice, the APOE*3Leiden transgenic mice are highly responsive to diet and hypolipidemic drugs affecting plasma VLDL and chylomicron levels (Van Vlijmen B et al, Diet-induced hyperlipoproteinemia and atherosclerosis in apolipoprotein E3-Leiden transgenic mice, J Clin Invest 1994; 93: 1403-1410; Groot PHE, et al. Quantitative assessment of aortic atherosclerosis in apoE3Leiden transgenic mice and its relationship to serum cholesterol exposure, Arterioscler Thromb Vase Biol 1996; 16: 926-933). Consequently, this model is appropriate to evaluate effects of lipid lowering drugs.
In this study, female APOE*3Leiden transgenic mice were put on a semi-synthetic Western-type diet (WTD; 15% cocoa butter, 40% sucrose and 0.25% cholesterol; all w/w). […]
Liver tissues were stored in RNA later (Qiagen) at −80° C. […] Each sample was measured in 3 parallels, and the results are presented as the mean value relative to control (WTD without addition), The fold change in gene expression was calculated by the ΔΔCt method, using Rplp0 as housekeeping gene and the mean of the control samples as calibrator.

Apo C-III = assay: Example 25C Phase Ib clinical study, hypercholesterolemia, 4 weeks; type: in vivo, human; details: 600 mg QD, male hypercholesterolemic subjects withdrawn from statin, statistically significant
Experimental: This study investigated subjects with fasting LDL-C of at least […] (˜97 mg/dl). The objective of the study was to determine the pharmacodynamics and lipid lowering effects of Compound A (Example 2) following 4 weeks of treatment in male, hypercholesterolemic subjects withdrawn from stable statin therapy.
The population for this study consisted of men between 18 and 65 years of any ethnic origin and with a BMI between 18.0 and 35.0 kg/m^2.
This Phase Ib study consisted of a 4-5 week screening period, and a 4 week double-blind, randomized, placebo-controlled treatment period.
All subjects had to be on lipid-lowering statin therapy for at least 3 months prior to the first screening visit, and at stable statin dose for at least 4 weeks prior to the first screening vist.
Statin treatment was withdrawn at the first screening visit, and remained withdrawn for the entire screening period. […]
Blood lipids were measured at the end of the screening period and after 4 weeks of treatment, Exploratory pharmacodynamic measurements included LDL-C, VLDL-C, TC, TO, HDL-C, Non-HDL-C, and Apo B. The impact of Compound A on Apo C-III was also measured.
Summary statistics for baseline is given as mean with coefficient of variance. The mean changes from baseline with 95% confidence intervals were presented by treatment group for efficacy variables analyzed. […]

[1] = tested on: plasma apoC-III and other lipid parameters; assay: Example 25A Phase II clinical study, severe hypertriglyceridemia (TG above 500 mg/dL), 12 weeks; type: in vivo, human; details: 600 mg QD
Experimental: This study investigated patients with fasting plasma triglyceride levels above 500 mg/dL The primary objective of this study was to evaluate the efficacy of Compound A (Example 2) 600 mg once daily (QD) orally by assessment of the percentage change in triglycerides (TG) from baseline after 12 weeks of treatment. One of the secondary objectives was to evaluate the impact of Compound A on plasma levels of apoC-III.
(§1) This Phase II, multicenter, proof of concept study consisted of a 6- to 8-week screening period (which included a 4- or 6-week diet and lifestyle stabilization/washout period and a 2-week TG qualifying period), and a 12-week, double-blind, randomized, parallel group, placebo-controlled treatment period.
After confirmation of qualifying fasting TG values, eligible subjects entered the 12-week, randomized, double-blind treatment period. At Visit 4 (Week 0), subjects were randomly assigned in a 1:1 ratio to 1 of the following treatment groups: Compound A 600 mg QD or placebo QD.
Approximately 43 subjects per treatment group (approximately 86 subjects total) were to be randomized in this study. Stratification was by baseline TG level (≤700 mg/dL or >700 mg/dL), statin use at randomization, and gender.
(§2) The population for this study was men and women (women of childbearing potential were required to use adequate methods to avoid pregnancy) between the ages of 18 to 79 years of age, inclusive. Subjects on stable lipid-lowering statin therapy and subjects not on non-statin therapy were eligible to enroll in the study. Subjects were required to have an average fasting TG level ≥500 mg/dL, and ≤1500 mg/dL from Visit 2 and Visit 3 values or Visit 3 and Visit 3.1 values prior to randomization.
The ITT Population was the primary analysis population, All efficacy analyses were performed on the ITT Population.
(§3) Summary statistics (n, mean, standard deviation [SD], median, minimum, and maximum) for the baseline and post-baseline measurements, the percent changes, or changes from baseline were presented by treatment group and by visit for all efficacy variables analyzed.
The primary efficacy analysis was performed using an analysis of covariance (ANCOVA) model with treatment, gender, and the use of statin therapy at randomization as factors and baseline TG value as a covariate. The least-squares means, standard errors, and 2-tailed 95% confidence intervals (CIs) for each treatment group and for the comparison between Compound A and placebo were provided.
An ANCOVA model was used for the analysis of secondary efficacy variables with treatment, gender, and the use of statin therapy at randomization as factors and the baseline value of the respective efficacy variable as a covariate.
The population recruited for the current study included men (69.0%) and women (31.0%) with a mean age of 52.5 years. approximately 21% of subjects in both treatment groups received statin therapy through the study. All other non-statin lipid-altering medications were discontinued at screening. Mean compliance to study medication during the study was 96.5% for the placebo group and 99.9% for the Compound A 600 mg group.

[2] = tested on: plasma apoC-III and other lipid parameters; assay: Example 25B Phase II clinical study, mixed dyslipidemia (TG 200-499 mg/dL) on statins, 12 weeks; type: in vivo, human; details: 600 mg QD
Experimental: This study investigated patients with fasting plasma TG levels between 200 and 499 mg/dL and non-high density lipoprotein cholesterol (non-HDL-C) above 130 mg/dL already receiving treatment with statins. The primary objective of this study was to evaluate the efficacy of Compound A (Example 2) 600 mg QD orally by assessment of the percentage change in triglycerides non-HDL-C from baseline after 12. weeks of treatment. One of the secondary objectives was to evaluate the impact of Compound A on plasma levels of apoC-III.
as §1, with “TG and non-HDL-C” for “TG”
After confirmation of qualifying fasting TG and non-HDL-C values, eligible subjects entered the 12-week, randomized, double-blind treatment period. At Visit 4 (Week 0), subjects were randomly assigned in a 1:1 ratio to 1 of the following treatment groups: Compound A 600 mg QD or placebo QD.
as §2, with “non-statin lipid-lowering” for “non-statin”, “between […]” for “≥500 mg/dL,”, “[…] and non-HDL-C values above 130” for “≤1500”
The ITT Population was the primary analysis population. All efficacy analyses were performed on the ITT Population.
as §3
The primary efficacy analysis was performed using an ANCOVA model with randomization as factor and baseline non-HDL-C value as a covariate. The least-squares means, standard errors, and 2-tailed 95% CIs for each treatment group and for the comparison between Compound A and placebo were provided.
The primary efficacy analysis was based on the […].
The population recruited for the current study included men (58.4%) and women ([…]) with a mean age of 58.3 years. All subjects were required to be on statin therapy (with or without ezetimibe) during the study. All other non-statin lipid-altering medications were discontinued at screening. Mean compliance to study medication during the study was 97.2% for the placebo group and 95.3% for the Compound A group.
The baseline mean non-HDL-C level for the study population was 165.9 mg/dL; the baseline median TG level was 262.0 mg/dL.

[3] = In-vitro digestion studies in a bio relevant media; type: in vitro ADME
Description: Examples 1-23 are exemplary and one skilled in the art would understand how to apply these general methods to arrive at other compounds within the scope of Formula (I). Compounds of the present disclosure may be in the form of a pharmaceutically acceptable salt or ester. For example, the compounds of Formula (I) may be in the form of esters, such as a phospholipid, a glyceride or a C1-C6-alkyl ester. In at least one embodiment, the ester is chosen from a glyceride or a C1-C6-alkyl ester. In at least one embodiment, the ester is chosen from a triglyceride, a 1,2 diglyceride, a 1,3-diglyceride, a 1-monoglyceride, a 2-monoglyceride, a methyl ester, an ethyl ester, a propyl ester, a isopropyl ester, a n-butyl ester and a tert-butyl ester. In at least one embodiment, the compound of Formula (I) is present as a methyl ester, an ethyl ester, an isopropyl ester, a n-butyl ester or a tert-butyl ester, for example as a methyl ester or an ethyl ester.

[4] = subjects with TG >500 mg/dl, 12 weeks
[5] = mixed dyslipidemia, TG = 200-499 mg/dl, on statin, 12 weeks

CC/C=C\C/C=C\C/C=C\C/C=C\C/C=C\CCCCOC(CC)C(=O)O (centres unmarked) [Compound A, 2-((5Z,8Z,11Z,14Z,17Z)-icosa-5,8,11,14,17-pentaen-1-yloxy)butanoic acid]
effect on hepatic apoC-III expression compared with reference Compound 12 (apoC-III): more potent | hepatic apoC-III expression versus mice fed a standard WTD (FIG. 1) (apoC-III; P<0.05, Student T-test): significantly lower | mean percent change in Apo C-III vs baseline (Apo C-III): −42% | LS mean percent change in apoC-III versus placebo ([1]; 12 weeks, ITT Population, 95% CI (−46.5, −22.8)): −34.7% | LS mean percent change in apoC-III vs baseline ([1]; 12 weeks, ITT Population, 95% CI (−47.5, −28.5)): −38.0% | median reduction in apoC-III ([1]; severe HTG patient population): 41% | ApoC-III, median % change from baseline [1, 4]: −41% | HDL-C, median % change from baseline [1, 4]: 24% | LDL-C, median % change from baseline [1, 4]: 43% | Non-HDL-C, median % change from baseline [1, 4]: −8% | TG, median % change from baseline [1, 4]: −51% | VLDL-C, median % change from baseline [1, 4]: −51% | LS mean percent change in ApoC-III vs placebo ([2]; 12-week completer population, 95% CI (−28.8, −12.7)): −20.8% | LS mean percent change in apoC-III vs baseline ([2]; 12-week completer population, 95% CI (−38.4, −26.6)): −32.5% | Apo B, median % change from baseline [2, 5]: −6% | ApoC-III, median % change from baseline [2, 5]: −35% | LDL-C, median % change from baseline [2, 5]: 0% | Non-HDL-C, median % change from baseline [2, 5]: −10% | TG, median % change from baseline [2, 5]: −43% | VLDL-C, median % change from baseline [2, 5]: −39% | median reduction in apoC-III ([2]; mixed dyslipidemic patient population): 35%

CC/C=C\C/C=C\C/C=C\C/C=C\C/C=C\CCCCOC(CC)C(=O)OCC (centres unmarked) [Example 12, ethyl 2-((5Z,8Z,11Z,14Z,17Z)-icosa-5,8,11,14,17-pentaen-1-yloxy)butanoate]
hydrolysis in the gastrointestinal tract, from in-vitro digestion [3]: rapidly hydrolyzed

CC/C=C\C/C=C\C/C=C\C/C=C\C/C=C\CCCCOC(CC)C(=O)OCCCC (centres unmarked) [Example 15, butyl 2-(((5Z,8Z,11Z,14Z,17Z)-icosa-5,8,11,14,17-pentaen-1-yl)oxy)butanoate]
hydrolysis in the gastrointestinal tract, from in-vitro digestion [3]: rapidly hydrolyzed
